Blank lines part the entries; values can stand above or below the compound they belong to.
Legend:
CXCR4 = target: T1, CXCR4 (Homo sapiens, UniProt P61073); test: Primary binding affinity screening (competition with biotinylated TN14003)
T1 construct: endogenous in cells; host or cells: MDA-MB-231
Protocol: The compounds were initially screened with a binding affinity assay. […] MDA-MB-231 cells were pre-incubated with compounds at concentrations of 1, 10, 100, and 1000 nM, then incubated with biotinylated TN14003 and streptavidin-conjugated rhodamine to determine the binding efficiency of the new compounds to the CXCL12 binding domain of CXCR4. […] Thus, this screening is a semi-quantitative, first pass measure of the level of activity.
For binding affinity assay, 2×10^4 MDA-MB-231 cells in 300 μL of cell culture medium were seeded in an 8-well slide chamber 2 days before the experiments were conducted. Various concentrations of different compounds (1, 10, 100, or 1000 nM) were added to the separate wells and incubated for 10 min at room temperature, and then the cells were fixed in 4% ice-cold paraformaldehyde. The cells were rehydrated in phosphate-buffered saline (PBS). The slides were subsequently incubated for 30 min at room temperature with 0.05 μg/mL biotinylated TN14003, washed three times with PBS, and incubated in streptavidin-rhodamine (1:150 dilution; Jackson ImmunoResearch Laboratories, West Grove, Pa.) for 30 min at room temperature. Finally, the slides were washed with PBS and mounted in an anti-fade mounting solution (Molecular Probes, Eugene, Oreg.), and the samples were analyzed on a Nikon Eclipse E800 microscope.

[1] = system: CXCR4/CXCL12-mediated chemotaxis and invasion; test: Matrigel invasion assay; format: cell-based; conditions: for inhibition at 0.1 µM: single concentration of 100 nM, CXCL12 as chemoattractant, FIG. 2, read-out: inhibitory rate, Matrigel invasion; for Invasion: Table 3, concentration used 100 nM; for Invasion Assay: Table 2
Source text: To model in vitro metastasis, a Matrigel® invasion assay was used as the functional assay. […] A layer of Matrigel® matrix-coated permeable support (8 μm pore diameter) separates the upper and lower chambers.

[2] = system: carrageenan-induced mouse paw edema; test: In vivo suppression against carrageenan-induced paw edema; conditions: for inflammation-suppression percentage (paw edema): female C57BL/6J mice, 74 h after carrageenan challenge; for Carageenan: Table 3, mice dosed 10 mg of compound per kg
Protocol: CXCR4 plays a role in the recruitment of inflammatory cells to sites of inflammation. Blocking CXCR4 is a therapeutic strategy in inflammatory diseases. A carrageenan-induced mouse paw edema model as an efficient model to evaluate the in vivo CXCR4 antagonistic activity for CXCR4 inhibitors.
Acute inflammation was induced by subcutaneous injection of 50 μL of λ-carrageenan (1% w/v in saline) into one of the hind paws of the female C57BL/6J mice (Jackson Laboratories); the other hind paw was injected with 50 μL of saline, which was used as a non-inflammation control. The selected compounds were dissolved in 10% DMSO and 90% of 45% (2-hydroxypropyl)-β-cyclodextrin (CD) in PBS. In the treatment group, compounds IIg, IIk, IIm and IIn were administered intraperitoneally (i.p.) at 10 mg/kg daily, while TN14003 was administered at 300 μg/kg, i.p., daily, 30 min following carrageenan challenge. The rationale for using 300 μg/kg for TN14003 was that this concentration was reported to be the minimum concentration needed to achieve the maximum efficacy of this compound in a […] metastasis animal model. See Yoon et al. CXC chemokine receptor-4 antagonist blocks both growth of primary tumor and metastasis of head and neck cancer in xenograft mouse models. Cancer Res., 67 (2007), pp. 7518-7524. Control animals received corresponding i.p. injections of the vehicle. The animals were sacrificed 74 h after carrageenan challenge and 2 h after the last injection of the selected compounds. The final paws were photographed and measured for thickness from the “palm” to the back of the paw with a caliper. These were compared to the volume of carrageenan-untreated contralateral paw to obtain the edema volume; the volume of the contralateral paw was subtracted from the volume of the carrageenan injected paw to obtain the edema volume. The inflammation-suppression percentage was calculated by comparing the drug-treated group to the control group.

[3] = effective concentration = lowest concentration with significant reduction of rhodamine fluorescence, MDA-MB-231 cells, tested at 1, 10, 100, 1000 nM

T1 sequence (P61073 whole entry): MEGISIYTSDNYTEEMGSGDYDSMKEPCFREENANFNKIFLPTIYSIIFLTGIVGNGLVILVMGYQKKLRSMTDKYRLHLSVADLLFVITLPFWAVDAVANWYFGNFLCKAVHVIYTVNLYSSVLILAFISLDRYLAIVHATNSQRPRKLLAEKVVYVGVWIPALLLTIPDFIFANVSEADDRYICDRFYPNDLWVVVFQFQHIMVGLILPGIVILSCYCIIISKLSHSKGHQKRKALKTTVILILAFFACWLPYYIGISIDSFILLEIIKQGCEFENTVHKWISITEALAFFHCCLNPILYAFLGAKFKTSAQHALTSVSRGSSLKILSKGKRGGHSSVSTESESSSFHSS

Compound: CN(Cc1cccc(Cl)c1)Cc1cccc(CN(C)Cc2cccc(Cl)c2)n1 [IIg, N,N′-(Pyridine-2,6-diylbis(methylene))bis(1-(3-chlorophenyl)-N-methylmethanamine)]
EC (CXCR4; [3]): 10 nM
inhibition at 0.1 µM [1]: 88.6%

Compound: CN(Cc1ccc(CN(C)Cc2ccccc2Cl)cc1)Cc1ccccc1Cl [If, N,N′-(1,4-Phenylenebis(methylene))bis(1-(2-chlorophenyl)-N-methylmethanamine)]
EC (CXCR4; [3]): >1000 nM

Compound: CN(Cc1cccnc1)Cc1cccc(CN(C)Cc2cccnc2)n1 [IIo, N,N′-(Pyridine-2,6-diylbis(methylene))bis(N-methyl-1-(pyridin-3-yl)methanamine)]
EC (CXCR4; [3]): >1000 nM

Compound: c1ccc(CN(Cc2ccc(CN(Cc3ccccc3)CC3CC3)cc2)CC2CC2)cc1 [Im, N,N′-(1,4-Phenylenebis(methylene))bis(N-benzyl-1-cyclopropylmethanamine)]
EC (CXCR4; [3]): 1000 nM

Compound: COc1cccc(CN(C)Cc2ccc(CN(C)Cc3cccc(OC)c3)cc2)c1 [Ik, N,N′-(1,4-Phenylenebis(methylene))bis(1-(3-methoxyphenyl)-N-methylmethanamine)]
EC (CXCR4; [3]): 10 nM
inhibition at 0.1 µM [1]: < 50%

Compound: CCN(Cc1ccccc1)Cc1ccc(CN(CC)Cc2ccccc2)cc1 [Il, N,N′-(1,4-Phenylenebis(methylene))bis(N-benzylethanamine)]
EC (CXCR4; [3]): 1000 nM

Compound: CN(Cc1ccncc1)Cc1ccc(CN(C)Cc2ccncc2)cc1 [Ip, N,N′-(1,4-Phenylenebis(methylene))bis(N-methyl-1-(pyridin-4-yl)methanamine)]
EC (CXCR4; [3]): >1000 nM

Compound: CCN(Cc1ccccc1)Cc1cccc(CN(CC)Cc2ccccc2)n1 [IIl, N,N′-(Pyridine-2,6-diylbis(methylene))bis(N-benzylethanamine)]
EC (CXCR4; [3]): >1000 nM

Compound: c1ccc(NCc2ccc(CNc3ccccn3)cc2)nc1 [WZ811, reference compound]
EC (CXCR4; Table 3): 10 nM
Invasion [1]: 90%
Carageenan [2]: 40%

Compound: c1cc(CN2CCOCC2)nc(CN2CCOCC2)c1 [2,6-Bis(morpholinylmethyl)pyridine]
EC (CXCR4; Table 3): 10 nM
Invasion [1]: 63%
Carageenan [2]: 39.1%

Compound: CN(Cc1ccc(CN(C)Cc2cccnc2)cc1)Cc1cccnc1 [Io, N,N′-(1,4-Phenylenebis(methylene))bis(N-methyl-1-(pyridin-3-yl)methanamine)]
EC (CXCR4; [3]): >1000 nM

Compound: CCc1ccc(NCc2ccc(CNc3ccc(CC)cc3)nc2)cc1 [2,5-pyridine H 4-Et Phenyl, N′-(Pyridine-2,5-diylbis(methylene))bis(4-ethylaniline)]
EC (CXCR4; Table 2): 1 nm
Invasion Assay [1]: 64%

Compound: TN14003 [reference compound]
inflammation-suppression percentage (paw edema) ([2]; 300 μg/kg i.p. daily): 48%

Compound: CN(Cc1cccc(CN(C)c2ccc(F)cc2)n1)c1ccc(F)cc1 [IIe, N,N′-(Pyridine-2,6-diylbis(methylene))bis(4-fluoro-N-methylaniline)]
EC (CXCR4; [3]): 1000 nM
inhibition at 0.1 µM [1]: < 50%

Now from value to compound, other results behind:

EC (CXCR4; [3]): 1 nM
Compound: c1cc(CN2CCCCC2)nc(CN2CCCCC2)c1 [IIb, 2,6-Bis(piperidin-1-ylmethyl)pyridine]
inhibition at 0.1 µM [1]: 65.3%

EC (CXCR4; [3]): 10 nM
Compound: COc1cccc(CN(C)Cc2cccc(CN(C)Cc3cccc(OC)c3)n2)c1 [IIk, N,N′-(Pyridine-2,6-diylbis(methylene))bis(1-(3-methoxyphenyl)-N-methylmethanamine)]
inhibition at 0.1 µM [1]: 76.7%
inflammation-suppression percentage (paw edema) ([2]; 10 mg/kg i.p. daily): 31.0%

EC (CXCR4; [3]): >1000 nM
Compound: CN(Cc1ccc(CN(C)Cc2ccccn2)cc1)Cc1ccccn1 [In, N,N′-(1,4-Phenylenebis(methylene))bis(N-methyl-1-(pyridin-2-yl)methanamine)]

EC (CXCR4; Table 3): 1 nM
Compound: FC(F)(F)c1ccc(NCc2cccc(CNc3ccc(C(F)(F)F)cc3)n2)cc1 [2,6-Bis(4-trifluoromethylanilinomethyl)pyridine]
Invasion [1]: 52%
Carageenan [2]: 20.3%

EC (CXCR4; [3]): >1000 nM
Compound: CN(Cc1ccc(CN(C)Cc2cccc(F)c2)cc1)Cc1cccc(F)c1 [Ii, N,N′-(1,4-Phenylenebis(methylene))bis(1-(3-fluorophenyl)-N-methylmethanamine)]

EC (CXCR4; Table 3): 1 nM
Compound: CCc1ccc(NCc2cccc(CNc3ccc(CC)cc3)n2)cc1 [2,6-Bis(4-ethylanilinomethyl)pyridine]
Invasion [1]: 64%
Carageenan [2]: 42.0%

EC (CXCR4; Table 3): 10 nM
Compound: Fc1cccc(NCc2cccc(CNc3cccc(F)c3)n2)c1 [2,6-Bis(3-fluoroanilinomethyl)pyridine]
Invasion [1]: 50%
Carageenan [2]: 20.3%

EC (CXCR4; [3]): 1000 nM
Compound: CN(Cc1ccc(F)cc1)Cc1cccc(CN(C)Cc2ccc(F)cc2)n1 [IIj, N,N′-(Pyridine-2,6-diylbis(methylene))bis(1-(4-fluorophenyl)-N-methylmethanamine)]

EC (CXCR4; [3]): 100 nM
Compound: c1cc(CN2CCOCC2)nc(CN2CCOCC2)c1 [IIc, 2,6-Bis(morpholinomethyl)pyridine]
inhibition at 0.1 µM [1]: 68.9%

EC (CXCR4; [3]): >1000 nM
Compound: CN(Cc1ccc(CN(C)Cc2ccccc2F)cc1)Cc1ccccc1F [Ih, N,N′-(1,4-Phenylenebis(methylene))bis(1-(2-fluorophenyl)-N-methylmethanamine)]

EC (CXCR4; Table 3): 1000 nM
EC (CXCR4; [3]): 1000 nM
Compound: c1cc(CN2CCCNCCNCCCNCC2)ccc1CN1CCCNCCNCCCNCC1 [AMD3100, reference compound]
Invasion [1]: 62%

EC (CXCR4; [3]): >1000 nM
Compound: CN(Cc1ccncc1)Cc1cccc(CN(C)Cc2ccncc2)n1 [IIp, N,N′-(Pyridine-2,6-diylbis(methylene))bis(N-methyl-1-(pyridin-4-yl)methanamine)]

EC (CXCR4; Table 2): 10 nm
Compound: Fc1cccc(NCc2ccc(CNc3cccc(F)c3)nc2)c1 [2,5-pyridine H 3-F Phenyl, N,N′-(Pyridine-2,5-diylbis(methylene))bis(3-fluoroaniline)]
Invasion Assay [1]: 50%

EC (CXCR4; [3]): 1000 nM
Compound: CN(Cc1ccc(CN(C)Cc2cccc(Cl)c2)cc1)Cc1cccc(Cl)c1 [Ig, N,N′-(1,4-Phenylenebis(methylene))bis(1-(3-chlorophenyl)-N-methylmethanamine)]

EC (CXCR4; [3]): >1000 nM
Compound: CN(Cc1cccc(CN(C)Cc2ccccc2Cl)n1)Cc1ccccc1Cl [IIf, N,N′-(Pyridine-2,6-diylbis(methylene))bis(1-(2-chlorophenyl)-N-methylmethanamine)]

EC (CXCR4; [3]): 1000 nM
Compound: CN(Cc1cccc(CN(C)Cc2ccccc2F)n1)Cc1ccccc1F [IIh, N,N′-(Pyridine-2,6-diylbis(methylene))bis(1-(2-fluorophenyl)-N-methylmethanamine)]

EC (CXCR4; [3]): >1000 nM
Compound: CN(Cc1cccc(F)c1)Cc1cccc(CN(C)Cc2cccc(F)c2)n1 [IIi, N,N′-(Pyridine-2,6-diylbis(methylene))bis(1-(3-fluorophenyl)-N-methylmethanamine)]

EC (CXCR4; [3]): 1 nM
Compound: c1cc(CN2CCCC2)nc(CN2CCCC2)c1 [IIa, 2,6-Bis(pyrrolidin-1-ylmethyl)pyridine]

EC (CXCR4; [3]): 1 nM
Compound: c1ccc(CN(Cc2cccc(CN(Cc3ccccc3)CC3CC3)n2)CC2CC2)cc1 [IIm, N,N′-(Pyridine-2,6-diylbis(methylene))bis(N-benzyl-1-cyclopropylmethanamine)]
inhibition at 0.1 µM [1]: 100%

EC (CXCR4; Table 2): 100 nm
EC (CXCR4; Table 3): 1 nM
Compound: Cc1cccc(NCc2ccc(CNc3cccc(C)c3)nc2)c1 [N,N′-(Pyridine-2,5-diylbis(methylene))bis(3-methylaniline)]
Invasion Assay [1]: 60.2%
Invasion [1]: 58%

EC (CXCR4; [3]): 1000 nM
Compound: c1cc(CN2CCCC2)ccc1CN1CCCC1 [Ia, 1,4-Bis(pyrrolidin-1-ylmethyl)benzene]

Source: patent US10709697B2, “Bis-amines, compositions, and uses related to CXCR4 inhibition” (Emory University, priority 2015, dated 2020)
